In patent US10501421B1, “Substituted benzimidazoles as modulators of Ras signaling” (VANDERBILT UNIVERSITY, priority 2017, dated 2019):
Where a name gives a salt, the structure may show the parent alone. Read-outs that look alike come from different tables or passages of the source.

How the values were obtained:
[1] = target: Ras GEF SOS (Son of Sevenless) (Homo sapiens, UniProt Q07889); assay: SOS-mediated nucleotide exchange on Ras (BODIPY-GDP fluorescence); type: biochemical; conditions: SOS-mediated exchange of BODIPY-GDP for GTP on Ras
How it was run: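 Ras loaded with BODIPY-GDP was mixed in buffer with test compound, then GTP and SOS. Fluorescence change from labeled GDP/GTP exchange was followed over time, and rates came from single-exponential fits. EC50 came from a four-parameter fit of mean rate against compound concentration.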

Son of Sevenless (SOS) = target: T1, Son of Sevenless (SOS) (Homo sapiens, UniProt Q07889); assay: Binding to SOS, fluorescence polarization anisotropy (FPA) probe displacement; conditions: displacement of FITC-conjugated probe (Example 285), affinity calculated from IC50
T1 sequence (Q07889 564-1049 limits assumed): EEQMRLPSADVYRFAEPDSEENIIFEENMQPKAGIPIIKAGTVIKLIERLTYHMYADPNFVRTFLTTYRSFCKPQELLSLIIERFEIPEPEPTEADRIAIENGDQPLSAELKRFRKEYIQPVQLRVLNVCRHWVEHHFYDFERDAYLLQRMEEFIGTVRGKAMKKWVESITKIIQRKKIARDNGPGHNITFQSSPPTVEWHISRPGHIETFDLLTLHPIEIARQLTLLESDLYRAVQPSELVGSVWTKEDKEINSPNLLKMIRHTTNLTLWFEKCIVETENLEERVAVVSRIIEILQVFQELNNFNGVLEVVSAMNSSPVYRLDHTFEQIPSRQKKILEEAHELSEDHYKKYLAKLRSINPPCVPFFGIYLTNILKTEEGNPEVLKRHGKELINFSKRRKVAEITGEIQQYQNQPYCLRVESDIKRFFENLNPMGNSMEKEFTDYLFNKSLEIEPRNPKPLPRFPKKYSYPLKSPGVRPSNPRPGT
How it was run: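 A FITC-conjugated probe compound was incubated with SOS in buffer, and its displacement was tracked as a change in fluorescence anisotropy across a test-compound dose range. IC50 came from a four-parameter variable-slope fit, and binding affinity was calculated from it.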

[2] = tested on: H727 lung cancer cell lines (G12V K-Ras mutation); assay: Inhibition of cancer cell proliferation (CellTiter-Glo); type: cell-based; conditions: Homo sapiens, NCI-H727, 72 h, read-out: Cell proliferation activity (H727 cancer cell line proliferation IC50)
How it was run: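 H727 cells (K-Ras G12V), 1000/well, plated overnight then exposed to a compound dose range for 3 days at 37 °C. Proliferation by CellTiter-Glo, normalized to DMSO; IC50 from four-parameter variable-slope fit.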

[3] = H727 cells, 3 days treatment, CellTiter-Glo

Sequence of Ras GEF SOS (Son of Sevenless) (P01112 1-166 partner limits assumed, one chain of several): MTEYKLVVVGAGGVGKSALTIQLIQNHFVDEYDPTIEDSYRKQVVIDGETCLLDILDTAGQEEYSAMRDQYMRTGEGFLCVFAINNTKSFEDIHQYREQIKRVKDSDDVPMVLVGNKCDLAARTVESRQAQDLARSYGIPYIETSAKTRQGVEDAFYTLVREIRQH

Row | SMILES | EC50 [1] | Ki (Son of Sevenless (SOS)) | IC50 [2, 3] | IC50 [2]
1 | Cc1cc(Cn2c(NCC3CNC3)nc3ccc(OC(C)C(F)(F)F)nc32)ccc1F (stereo not drawn) [Example 260, N-(azetidin-3-ylmethyl)-3-(4-fluoro-3-methylbenzyl)-5-((1,1,1-trifluoropropan-2-yl)oxy)-3H-imidazo[4,5-b]pyridin-2-amine] | 5 to 30 µM | > 5 µM | < 1 µM | 
2 | Cc1cc(Cn2c(N3CCNCC3)nc3c(CN4CCCC4)cc(Cl)cc32)cc(C)c1F [Example 130, 6-chloro-1-(4-fluoro-3,5-dimethylbenzyl)-2-(piperazin-1-yl)-4-(pyrrolidin-1-ylmethyl)-1H-benzo[d]imidazole trifluoroacetate] | < 1 µM | < 0.5 µM |  | 1 to 5 µM
3 | Cc1cnc2nc(N3CCC(N)C3)n(Cc3ccc(F)c(C)c3)c2c1 (stereo not drawn) [Example 241, 1-(1-(4-fluoro-3-methylbenzyl)-6-methyl-1H-imidazo[4,5-b]pyridin-2-yl)pyrrolidin-3-amine] | 1 to 5 µM | > 5 µM | > 20 µM | 
4 | CCCNCc1c(C)c(C)cc2c1nc(N1CCNCC1)n2Cc1cc(C)c(F)c(C)c1 [Example 132, N-((1-(4-fluoro-3,5-dimethylbenzyl)-5,6-dimethyl-2-(piperazin-1-yl)-1H-benzo[d]imidazol-4-yl)methyl)propan-1-amine trifluoroacetate] | < 1 µM | 1 to 5 µM |  | 1 to 5 µM
5 | Cc1cc2c(nc(N3CCNCC3)n2Cc2ccc(Cl)cc2)c(-c2ccccc2Cl)c1C [Example 106, 1-(4-chlorobenzyl)-4-(2-chlorophenyl)-5,6-dimethyl-2-(piperazin-1-yl)-1H-benzo[d]imidazole trifluoroacetate] | 1 to 5 µM | 1 to 5 µM |  | 1 to 5 µM
6 | Fc1ccc(Cn2c(NCC3CNC3)nc3ccc(Cl)cc32)cc1Cl [Example 75, N-(azetidin-3-ylmethyl)-6-chloro-1-(3-chloro-4-fluorobenzyl)-1H-benzo[d]imidazol-2-amine trifluoroacetate] | 1 to 5 µM | 1 to 5 µM |  | 1 to 5 µM
7 | Fc1ccc(Cn2c(N3CCNCC3)nc3c(-c4cccnc4)cccc32)cc1Cl [Example 89, 1-(3-chloro-4-fluorobenzyl)-2-(piperazin-1-yl)-4-(pyridin-3-yl)-1H-benzo[d]imidazole] | 1 to 5 µM | 1 to 5 µM | 5 to 20 µM | 
8 | Cc1cc(-c2ccccc2Cl)c2nc(N3CCNCC3)n(Cc3ccc(F)c(Cl)c3)c2c1 [Example 118, 1-(3-chloro-4-fluorobenzyl)-4-(2-chlorophenyl)-6-methyl-2-(piperazin-1-yl)-1H-benzo[d]imidazole trifluoroacetate] | 1 to 5 µM | < 0.5 µM |  | 1 to 5 µM
9 | Fc1ccc(Cn2c(NC3CCNC3)nc3ccc(Cl)cc32)cc1Cl (stereo not drawn) [Example 77, 6-chloro-1-(3-chloro-4-fluorobenzyl)-N-(pyrrolidin-3-yl)-1H-benzo[d]imidazol-2-amine trifluoroacetate] | < 1 µM | 0.5 to 1 µM |  | 1 to 5 µM
10 | CC(C)c1ccccc1-c1cccc2c1nc(N1CCNCC1)n2Cc1ccc(F)c(Cl)c1 [Example 94, 1-(3-chloro-4-fluorobenzyl)-4-(2-isopropylphenyl)-2-(piperazin-1-yl)-1H-benzo[d]imidazole] | 1 to 5 µM | 1 to 5 µM | 1 to 5 µM | 
11 | Cc1cc2nc(N3CCNCC3)n(Cc3ccc(F)c(C4CC4)c3)c2cc1C [Example 51, 1-(3-cyclopropyl-4-fluorobenzyl)-5,6-dimethyl-2-(piperazin-1-yl)-1H-benzo[d]imidazole trifluoroacetate] | 5 to 30 µM | > 5 µM |  | 1 to 5 µM
12 | Cc1cc2c(nc(NCCN)n2Cc2ccc(F)c(Cl)c2)c(-c2c(C)nn(C)c2C)c1C [Example 114, N^1-(1-(3-chloro-4-fluorobenzyl)-5,6-dimethyl-4-(1,3,5-trimethyl-1H-pyrazol-4-yl)-1H-benzo[d]imidazol-2-yl)ethane-1,2-diamine trifluoroacetate] | 1 to 5 µM | 1 to 5 µM |  | 5 to 20 µM
13 | Cc1cnc2nc(N3CC(CN)C3)n(Cc3ccc(F)c(C)c3)c2c1 [Example 248, (1-(1-(4-fluoro-3-methylbenzyl)-6-methyl-1H-imidazo[4,5-b]pyridin-2-yl)azetidin-3-yl)methanamine] | < 1 µM | 0.5 to 1 µM | 5 to 20 µM | 
14 | C=C[C@H](N)c1cc(C)cc2c1nc(N1CCNCC1)n2Cc1cc(C)c(F)c(C)c1 [Example 162, (S)-1-(1-(4-fluoro-3,5-dimethylbenzyl)-6-methyl-2-(piperazin-1-yl)-1H-benzo[d]imidazol-4-yl)prop-2-en-1-amine trifluoroacetate] | 1 to 5 µM | 1 to 5 µM |  | 1 to 5 µM
15 | Cc1cc(CN2CCOCC2)c2nc(N3CCNCC3)n(Cc3cc(C)c(F)c(C)c3)c2c1 [Example 127, 4-((1-(4-fluoro-3,5-dimethylbenzyl)-6-methyl-2-(piperazin-1-yl)-1H-benzo[d]imidazol-4-yl)methyl)morpholine trifluoroacetate] | 1 to 5 µM | 1 to 5 µM |  | 1 to 5 µM
16 | Cc1cc2c(nc(N3CCNCC3)n2Cc2ccc(F)c(Cl)c2)c(-c2ccccc2)c1C [Example 104, 1-(3-chloro-4-fluorobenzyl)-5,6-dimethyl-4-phenyl-2-(piperazin-1-yl)-1H-benzo[d]imidazole trifluoroacetate] | 1 to 5 µM | 1 to 5 µM |  | 1 to 5 µM
17 | Cc1cc(-c2ccccc2C)c2nc(N3CCNCC3)n(Cc3ccc(F)c(Cl)c3)c2c1 [Example 120, 1-(3-chloro-4-fluorobenzyl)-6-methyl-2-(piperazin-1-yl)-4-(o-tolyl)-1H-benzo[d]imidazole trifluoroacetate] | 1 to 5 µM | < 0.5 µM |  | 1 to 5 µM
18 | Cc1cc(Cn2c(N3CC(CN)C3)nc3ccc(OC(C)C(F)(F)F)nc32)ccc1F (stereo not drawn) [Example 259, (1-(3-(4-fluoro-3-methylbenzyl)-5-((1,1,1-trifluorpropan-2-yl)oxy)-3H-imidazo[4,5-b]pyridin-2-yl)azetidin-3-yl)methanamine] | 5 to 30 µM | > 5 µM | < 1 µM | 
19 | Cc1cc(CN(C)C)c2nc(N3CCNCC3)n(Cc3cc(C)c(F)c(C)c3)c2c1 [Example 128, 1-(1-(4-fluoro-3,5-dimethylbenzyl)-6-methyl-2-(piperazin-1-yl)-1H-benzo[d]imidazol-4-yl)-N,N-dimethylmethanamine trifluoroacetate] | < 1 µM | 0.5 to 1 µM |  | 1 to 5 µM
20 | C=Cc1cc(Cn2c(N3CCNCC3)nc3cc(C)c(C)cc32)ccc1F [Example 52, 1-(4-fluoro-3-vinylbenzyl)-5,6-dimethyl-2-(piperazin-1-yl)-1H-benzo[d]imidazole trifluoroacetate] | 5 to 30 µM | > 5 µM |  | > 20 µM
21 | C=C[C@H](N)c1cc(Cl)cc2c1nc(NCCN)n2Cc1cc(C)c(F)c(C)c1 [Example 156, (S)—N^1-(4-(1-aminoallyl)-6-chloro-1-(4-fluoro-3,5-dimethylbenzyl)-1H-benzo[d]imidazol-2-yl)ethane-1,2-diamine trifluoroacetate] | < 1 µM | < 0.5 µM |  | 1 to 5 µM
